{
  "source": "patent EP2114888B1",
  "about": "“TRICYCLIC COMPOUNDS AND THEIR USE AS GLUCOCORTICOID RECEPTOR MODULATORS” (priority 2007, dated 2008)",
  "key": {"osteocalcin": {"tested_on": "osteocalcin", "assay": "Serum osteocalcin suppression, 28-day repeat dose mouse model", "details": "in vivo", "method": "(§1) The compounds were weighed and suspended in a vehicle of 0.5% methylcellulose/0.025% tween 20 (Sigma-Aldrich, St. Louis, MO). Compound suspensions were homogenized using a Polytron PT-3100 tissue homogenizer to create a very fine suspension and were then sonicated for 10 minutes using a water bath sonicator. Aliquots of each suspension were made for daily dosing at 0.2 ml/dose. Swiss Webster female mice, 10-12 weeks old, 28-29 grams, (Taconic, Germantown, NY) were used in accordance with the guidelines of the Institutional Animal Care and Use Committee and in accordance with NIH guidelines on laboratory animal welfare. Mice were acclimated in the Pfizer animal facility for three to seven days prior to being utilized in a study. […] Each treatment group contained 5-10 mice. To establish a dosing regimen for the studies, a pilot pharmacodynamic time course experiment was conducted to quantify TNFα repression after a single ED80 dose.\n(§2) Body weights were measured on the first and last day of each experiment. Blood samples were obtained after three weeks of dosing for a steady-state pharmacokinetic (PK) analysis. To assess compound effects on LPS-induced TNFα, all mice received an intraperitoneal injection of LPS (Salmonella typhosa, L-7895; Sigma-Aldrich, St. Louis,) 2.5 hr after the last dose on day 28. Mice were sacrificed 90 minutes after LPS administration. Serum samples were quantified for osteocalcin and TNFα using the multiplex assays (Linco Research, Inc, St. Charles, MO; Luminex 100, Austin, TX). Samples were diluted 1:20 and the assay was run according to manufacturer's instructions. The osteocalcin standard was purchased separately (Biomedical Technologies Inc., Stoughton, MA). Mice were fasted for 4 hours before serum was collected for TNFα, and osteocalcin levels. For each experiment, outliers were detected by calculating the number of standard deviations from the mean of the group. If the value being examined was more than 2.5 standard deviations from the mean, it was excluded from the rest of the calculations.\n(§3) The individual mouse percent inhibition values were fit to a four-parameter logistic model using the dose mean for each group.\n(§4) ED50 and ED80 values were obtained for the various endpoints using a four-parameter logistic fit. For compounds which were tested multiple times, ED50 and ED80 values were obtained using four-parameter logistic fits of the combined data from multiple experiments."}, "[1]": {"assay": "Serum osteocalcin suppression, 28-day repeat dose mouse model", "details": "in vivo, po", "method": "as §1, §2, §3, §4"}, "TNFα": {"tested_on": "TNFα", "assay": "LPS-induced serum TNFα suppression, 28-day repeat dose mouse model", "type": "in vivo, Swiss Webster female mice", "method": "as §1, §2, §3, §4"}, "[2]": {"details": "mouse, in vivo", "excerpt": "Due to blood volume sampling limitations in mice, AUC(0-4 hr) values were used to make pharmacodynamic comparisons."}, "[3]": {"assay": "Caco-2 cell monolayer A→B permeability assay", "details": "human", "excerpt": "The Caco-2 cell monolayer is an in vitro tissue culture model of the intestinal epithelium. These cells are of human colonic origin and become polarized, fully differentiated enterocytes in 2-3 weeks. Once differentiated, these cells have tight junctions and express various biochemical processes such as active efflux transporters including P-glycoprotein (P-gp). With this model, it is possible to determine the apparent permeability (Papp) of a compound across the polarized Caco-2 cell monolayer.\nAn A→B Assay is performed with Caco-2 cell monolayers to determine compound Papp from A chamber to B chamber. This Papp is representative of luminal (gut) to serosal (blood) compound transport across intestinal epithelium that may be seen during intestinal absorption."}, "[4]": {"tested_on": "house dust mite-induced BAL inflammatory cell influx", "assay": "House dust mite model of asthma", "type": "in vivo, Mice", "details": "p.o., b.i.d., BAL fluid"}, "IL-6": {"tested_on": "IL-6", "assay": "Ex vivo LPS-stimulated human whole blood, IL-6 production", "type": "cell-based", "details": "mean values", "method": "Venous blood from human donors was collected as 10 ml aliquots in tubes containing sodium heparin (BD Vacutainer from Becton Dickinson and Company, Franklin Lakes, NY). Blood was added to sterile polystyrene round bottom 96-well tissue culture plates (Corning Costar) at 100 µl/well, omitting the outside wells. Media (RPMI Medium 1640 with L-glutamine, Invitrogen Corporation, Carlsbad, CA) was added to the blood in 90 µl aliquots for a total volume of 190 µl. Outside wells were filled with 200 µl of media. Blood was placed in a humidified 37°C incubator with 5% CO2 while compounds were prepared (nearly 60 minutes).\nCompounds were prepared from 10 mM stock solutions in dimethylsulfoxide (DMSO, Sigma-Aldrich). […] Final DMSO and ethanol concentrations in the assay were 0.1 % and 1.5%. The samples were gently triturated twice to mix and replaced in the incubator. LPS stock (E. coli serotype 0111:B4, Sigma-Aldrich), stored in aliquots of 100 µg/ml in RPMI at -20°C, was diluted 1/50 in RPMI to make a working stock solution. After 60 minutes of incubation, 10 µl of the prepared LPS working stock was added to the blood to a final concentration of 100 ng/ml, omitting wells to be used as negative control. The samples were again gently triturated and the plates incubated overnight for 22 hours. Following incubation, the blood was centrifuged at 1500 x g for 5 minutes and the plasma removed to either freeze at -20°C or assay for cytokine release.\nIL-1β, IFNγ,IL-6, and TNFα protein levels were measured using Meso Scale assay kits (Meso Scale Discovery, Gaithersburg, MD). Reagents were allowed to come to room temperature. Meso Scale plates were blocked with 30 µl of human plasma/serum assay diluent with gentle shaking for 60 minutes at room temperature. Plates were washed 3x with wash buffer (PBS, Invitrogen Corporation, with 0.05% Tween-20, Sigma-Aldrich). Calibrators for standard curves were prepared in human plasma/serum assay diluent as a 1/5 serial dilution to achieve final concentrations ranging from 50000 pg/ml to 3.2 pg/ml. Samples and calibrators were added at 20 µl/well, then incubated at room temperature with gentle shaking for 90 minutes. Plates were again washed 3 times with wash buffer. Detection antibody was diluted in human plasma/serum antibody diluent to 1 µg/ml and added to the plate at 20 µl/well. Plates were incubated as before for 60 minutes and washed again. Read Buffer T (4x) was diluted 1:1 with mqH2O to 2 times concentration and 150 µl added to each well. Plates were analyzed on the SECTOR Imager 6000 (Meso Scale Discovery) to generate raw signal values.\nIndividual values were compared to positive and negative controls (vehicle treated blood with LPS and vehicle treated blood without LPS, respectively) to generate % inhibition. Triplicate values were averaged for each donor. The values for two donors were averaged (only one donor was used for IL-1β) and graphed using 4-parameter fit curves in the GraFit 5.0.11 application."}},
  "data": [
    {"smiles": "Cc1ncccc1NC(=O)c1ccc2c(c1)CC[C@@H]1C[C@@](O)(C(F)(F)F)CC[C@@]21Cc1ccccc1", "note": "[Example 1, (4βS,7R,8αR)-4β-benzyl-7-hydroxy-N-(2-methylpyridin-3-yl)-7-(trifluoromethyl)-4β,5,6,7,8,8α,9,10-octahydrophenanthrene-2-carboxamide]", "values": [
      {"measurement": "Serum osteocalcin EAUC50 (AUC 0-4 hr)", "setting": "osteocalcin", "result": 1.30, "unit": "µg·h/mL"},
      {"measurement": "Serum osteocalcin EAUC80 (AUC 0-4 hr)", "setting": "osteocalcin", "result": 4.20, "unit": "µg·h/mL"},
      {"measurement": "Osteocalcin Suppression (ED80 dose)", "setting": "osteocalcin; po", "result": ">10", "unit": "mg/kg"},
      {"measurement": "ED50", "setting": "[1]", "result": 2.91, "unit": "mg/kg"},
      {"measurement": "ED50", "setting": "TNFα; Mus musculus, 672 h, oral gavage, 28 days, LPS-induced serum TNFα", "result": 0.46, "unit": "mg/kg"},
      {"measurement": "ED80", "setting": "TNFα; Mus musculus, 672 h, oral gavage, 28 days, LPS-induced serum TNFα, read-out: TNFα Suppression (ED80 dose)", "result": 1.82, "unit": "mg/kg"},
      {"measurement": "Serum TNFα EAUC50 (AUC 0-4 hr)", "setting": "TNFα; mice", "result": 0.22, "unit": "µg·h/mL"},
      {"measurement": "Serum TNFα EAUC80 (AUC 0-4 hr)", "setting": "TNFα; mice", "result": 0.33, "unit": "µg·h/mL"},
      {"measurement": "AUC(0-4 hr) values as share of the AUC(0-24 hr) values", "setting": "[2]", "result": "more than 95%"},
      {"measurement": "Papp A→B", "setting": "[3]", "result": 375, "unit": "nm/s"},
      {"measurement": "Eosinophils (% inhibition)", "setting": "[4]; 0.1 mg/kg", "result": 42, "unit": "%"},
      {"measurement": "Lymphocytes (% inhibition)", "setting": "[4]; 0.1 mg/kg", "result": 34, "unit": "%"},
      {"measurement": "Neutrophils (% inhibition)", "setting": "[4]; 0.1 mg/kg", "result": 29, "unit": "%"},
      {"measurement": "T-cells (% inhibition)", "setting": "[4]; 0.1 mg/kg", "result": 39, "unit": "%"},
      {"measurement": "Total cells (% inhibition)", "setting": "[4]; 0.1 mg/kg", "result": 22, "unit": "%"},
      {"measurement": "Eosinophils (% inhibition)", "setting": "[4]; 1 mg/kg", "result": 97, "unit": "%"},
      {"measurement": "Lymphocytes (% inhibition)", "setting": "[4]; 1 mg/kg", "result": 94, "unit": "%"},
      {"measurement": "Neutrophils (% inhibition)", "setting": "[4]; 1 mg/kg", "result": 97, "unit": "%"},
      {"measurement": "T-cells (% inhibition)", "setting": "[4]; 1 mg/kg", "result": 88, "unit": "%"},
      {"measurement": "Total cells (% inhibition)", "setting": "[4]; 1 mg/kg", "result": 72, "unit": "%"},
      {"measurement": "Eosinophils (% inhibition)", "setting": "[4]; 10 mg/kg", "result": 99, "unit": "%"},
      {"measurement": "Lymphocytes (% inhibition)", "setting": "[4]; 10 mg/kg", "result": 97, "unit": "%"},
      {"measurement": "Neutrophils (% inhibition)", "setting": "[4]; 10 mg/kg", "result": 100, "unit": "%"},
      {"measurement": "T-cells (% inhibition)", "setting": "[4]; 10 mg/kg", "result": 96, "unit": "%"},
      {"measurement": "Total cells (% inhibition)", "setting": "[4]; 10 mg/kg", "result": 83, "unit": "%"},
      {"measurement": "inhibition at 0.000457247 µM", "setting": "IL-6; 0.457247 nM", "result": -1.37, "unit": "%"},
      {"measurement": "inhibition at 0.00137174 µM", "setting": "IL-6; 1.371742 nM", "result": 3.33, "unit": "%"},
      {"measurement": "inhibition at 0.00411523 µM", "setting": "IL-6; 4.115226 nM", "result": -1.07, "unit": "%"},
      {"measurement": "inhibition at 0.0123457 µM", "setting": "IL-6; 12.34568 nM", "result": -0.369, "unit": "%"},
      {"measurement": "inhibition at 0.037037 µM", "setting": "IL-6; 37.03704 nM", "result": -0.828, "unit": "%"},
      {"measurement": "inhibition at 0.111111 µM", "setting": "IL-6; 111.1111 nM", "result": 0.944, "unit": "%"},
      {"measurement": "inhibition at 0.333333 µM", "setting": "IL-6; 333.3333 nM", "result": 2.15, "unit": "%"},
      {"measurement": "inhibition at 1 µM", "setting": "IL-6; 1000 nM", "result": 8.05, "unit": "%"}
    ]}
  ]
}
